In the OligoGym collection:
Oligonucleotides are given in HELM: sugar(base)linkage, 5' to 3'; d 2'-deoxyribose, r ribose, m 2'-O-methylribose, p phosphate. ss, as = sense and antisense strand

What follows are substances tested against Mmp7 (rat) (assay: reporter assay of Huesken 2005). Conditions: siRNA.
Further: test concentration or dose not given here.

Point of comparison: “RNA1{r(A)p.r(G)p.r(G)p.r(C)p.r(C)p.r(U)p.r(C)p.r(G)p.r(G)p.r(C)p.r(G)p.r(G)p.r(A)p.r(G)p.r(A)p.r(U)p.r(G)p.r(C)p.r(U)p.d(T)p.d(T)}|RNA2{r(A)p.r(G)p.r(C)p.r(A)p.r(U)p.r(C)p.r(U)p.r(C)p.r(C)p.r(G)p.r(C)p.r(C)p.r(G)p.r(A)p.r(G)p.r(G)p.r(C)p.r(C)p.r(U)p.d(G)p.d(G)}$$$RNA1{StrandType:ss}|RNA2{StrandType:as}$”, normalised inhibition (eCFP-eYFP dual reporter) 68.5%. Against it:
- RNA1{r(A)p.r(G)p.r(A)p.r(A)p.r(G)p.r(U)p.r(G)p.r(A)p.r(C)p.r(C)p.r(G)p.r(C)p.r(A)p.r(C)p.r(U)p.r(U)p.r(C)p.r(A)p.r(G)p.d(T)p.d(T)}|RNA2{r(C)p.r(U)p.r(G)p.r(A)p.r(A)p.r(G)p.r(U)p.r(G)p.r(C)p.r(G)p.r(G)p.r(U)p.r(C)p.r(A)p.r(C)p.r(U)p.r(U)p.r(C)p.r(U)p.d(C)p.d(C)}$$$RNA1{StrandType:ss}|RNA2{StrandType:as}$ — lower, 32.9%
- RNA1{r(A)p.r(G)p.r(A)p.r(A)p.r(U)p.r(U)p.r(C)p.r(U)p.r(C)p.r(A)p.r(C)p.r(U)p.r(A)p.r(A)p.r(U)p.r(G)p.r(C)p.r(C)p.r(A)p.d(T)p.d(T)}|RNA2{r(U)p.r(G)p.r(G)p.r(C)p.r(A)p.r(U)p.r(U)p.r(A)p.r(G)p.r(U)p.r(G)p.r(A)p.r(G)p.r(A)p.r(A)p.r(U)p.r(U)p.r(C)p.r(U)p.d(G)p.d(C)}$$$RNA1{StrandType:ss}|RNA2{StrandType:as}$ — higher, 107%
- RNA1{r(A)p.r(G)p.r(A)p.r(C)p.r(A)p.r(U)p.r(C)p.r(A)p.r(U)p.r(A)p.r(A)p.r(U)p.r(U)p.r(G)p.r(G)p.r(C)p.r(U)p.r(U)p.r(C)p.d(T)p.d(T)}|RNA2{r(G)p.r(A)p.r(A)p.r(G)p.r(C)p.r(C)p.r(A)p.r(A)p.r(U)p.r(U)p.r(A)p.r(U)p.r(G)p.r(A)p.r(U)p.r(G)p.r(U)p.r(C)p.r(U)p.d(G)p.d(C)}$$$RNA1{StrandType:ss}|RNA2{StrandType:as}$ — higher, 99.4%
- RNA1{r(A)p.r(G)p.r(G)p.r(C)p.r(G)p.r(C)p.r(A)p.r(G)p.r(A)p.r(A)p.r(U)p.r(U)p.r(A)p.r(U)p.r(C)p.r(U)p.r(U)p.r(A)p.r(G)p.d(T)p.d(T)}|RNA2{r(C)p.r(U)p.r(A)p.r(A)p.r(G)p.r(A)p.r(U)p.r(A)p.r(A)p.r(U)p.r(U)p.r(C)p.r(U)p.r(G)p.r(C)p.r(G)p.r(C)p.r(C)p.r(U)p.d(G)p.d(T)}$$$RNA1{StrandType:ss}|RNA2{StrandType:as}$ — lower, 66%
- RNA1{r(A)p.r(G)p.r(G)p.r(C)p.r(G)p.r(U)p.r(G)p.r(A)p.r(A)p.r(C)p.r(U)p.r(U)p.r(C)p.r(C)p.r(U)p.r(G)p.r(U)p.r(U)p.r(U)p.d(T)p.d(T)}|RNA2{r(A)p.r(A)p.r(A)p.r(C)p.r(A)p.r(G)p.r(G)p.r(A)p.r(A)p.r(G)p.r(U)p.r(U)p.r(C)p.r(A)p.r(C)p.r(G)p.r(C)p.r(C)p.r(U)p.d(G)p.d(A)}$$$RNA1{StrandType:ss}|RNA2{StrandType:as}$ — higher, 91.1%
- RNA1{r(A)p.r(G)p.r(G)p.r(G)p.r(G)p.r(A)p.r(G)p.r(A)p.r(U)p.r(C)p.r(A)p.r(C)p.r(G)p.r(G)p.r(A)p.r(G)p.r(A)p.r(C)p.r(A)p.d(T)p.d(T)}|RNA2{r(U)p.r(G)p.r(U)p.r(C)p.r(U)p.r(C)p.r(C)p.r(G)p.r(U)p.r(G)p.r(A)p.r(U)p.r(C)p.r(U)p.r(C)p.r(C)p.r(C)p.r(C)p.r(U)p.d(T)p.d(G)}$$$RNA1{StrandType:ss}|RNA2{StrandType:as}$ — higher, 102%
- RNA1{r(A)p.r(G)p.r(U)p.r(A)p.r(C)p.r(U)p.r(G)p.r(G)p.r(A)p.r(C)p.r(G)p.r(G)p.r(A)p.r(U)p.r(G)p.r(G)p.r(U)p.r(G)p.r(A)p.d(T)p.d(T)}|RNA2{r(U)p.r(C)p.r(A)p.r(C)p.r(C)p.r(A)p.r(U)p.r(C)p.r(C)p.r(G)p.r(U)p.r(C)p.r(C)p.r(A)p.r(G)p.r(U)p.r(A)p.r(C)p.r(U)p.d(C)p.d(A)}$$$RNA1{StrandType:ss}|RNA2{StrandType:as}$ — higher, 90.5%
